22 compounds from patent US8283361B2 (AstraZeneca AB, priority 2008, dated 2012) can be followed below.

Each structure is given as a SMILES string.

Sequence of S. aureus GyrB ATPase (P0A0K8 whole entry): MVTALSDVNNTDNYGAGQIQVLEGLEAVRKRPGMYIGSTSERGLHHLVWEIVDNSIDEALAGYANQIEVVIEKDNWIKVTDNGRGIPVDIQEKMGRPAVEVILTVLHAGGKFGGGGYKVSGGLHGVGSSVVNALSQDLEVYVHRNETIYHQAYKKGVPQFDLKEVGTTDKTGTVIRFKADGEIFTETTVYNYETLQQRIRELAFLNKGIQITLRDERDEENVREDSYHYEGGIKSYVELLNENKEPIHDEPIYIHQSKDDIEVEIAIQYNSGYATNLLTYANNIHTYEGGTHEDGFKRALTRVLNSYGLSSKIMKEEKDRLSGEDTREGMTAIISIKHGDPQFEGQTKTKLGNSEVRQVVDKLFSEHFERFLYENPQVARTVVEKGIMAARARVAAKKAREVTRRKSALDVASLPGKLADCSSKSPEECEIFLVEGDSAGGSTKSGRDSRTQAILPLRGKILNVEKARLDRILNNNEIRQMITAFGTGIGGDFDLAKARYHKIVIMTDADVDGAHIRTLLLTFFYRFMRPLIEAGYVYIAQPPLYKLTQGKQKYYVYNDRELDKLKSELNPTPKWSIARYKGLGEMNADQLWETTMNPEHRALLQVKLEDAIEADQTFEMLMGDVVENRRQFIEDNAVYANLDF
Sequence of S. aureus GyrB ATPase (P0AES4 whole entry, further chain): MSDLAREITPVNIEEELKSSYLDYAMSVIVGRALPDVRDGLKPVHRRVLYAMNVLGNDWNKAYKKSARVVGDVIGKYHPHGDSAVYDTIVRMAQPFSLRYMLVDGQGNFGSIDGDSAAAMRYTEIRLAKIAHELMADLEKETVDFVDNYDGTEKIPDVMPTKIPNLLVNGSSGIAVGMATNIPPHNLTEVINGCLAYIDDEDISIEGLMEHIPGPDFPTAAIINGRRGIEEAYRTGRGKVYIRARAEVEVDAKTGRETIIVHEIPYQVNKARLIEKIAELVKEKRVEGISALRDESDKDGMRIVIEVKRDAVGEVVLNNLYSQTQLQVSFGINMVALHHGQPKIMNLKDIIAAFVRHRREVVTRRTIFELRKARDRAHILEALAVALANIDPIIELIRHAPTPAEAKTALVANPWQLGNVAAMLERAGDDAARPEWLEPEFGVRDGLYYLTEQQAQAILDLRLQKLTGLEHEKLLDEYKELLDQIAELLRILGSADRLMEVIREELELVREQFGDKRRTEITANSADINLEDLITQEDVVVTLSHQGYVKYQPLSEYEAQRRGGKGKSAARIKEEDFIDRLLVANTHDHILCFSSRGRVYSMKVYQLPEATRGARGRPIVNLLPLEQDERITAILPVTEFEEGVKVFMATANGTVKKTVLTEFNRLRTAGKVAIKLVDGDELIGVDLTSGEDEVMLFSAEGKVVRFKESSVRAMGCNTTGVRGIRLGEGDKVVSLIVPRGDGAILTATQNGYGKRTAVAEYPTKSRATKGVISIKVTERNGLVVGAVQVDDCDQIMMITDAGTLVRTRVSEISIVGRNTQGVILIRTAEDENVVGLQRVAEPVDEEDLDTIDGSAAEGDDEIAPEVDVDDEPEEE

For the first assay, the target named is S. aureus GyrB ATPase (Staphylococcus aureus, UniProt P0A0K8). Kind of assay: biochemical. As to conditions: compound at 1 μM; one value per test if tested more than once; 1 µM. The protocol:
S. aureus GyrB ATPase Inhibition Activity: Compounds may be tested for inhibition of S. aureus GyrB ATPase activity using an ammonium molybdate/malachite green-based phosphate detection assay (Lanzetta, P. A., L. J. Alvarez, P. S. Reinach, and O. A. Candia, 1979, 100: 95-97). Assays can be performed in multiwell plates in 30 μl reactions containing: 50 mM Hepes buffer pH 7.5, 75 mM ammonium acetate, 8.0 mM magnesium chloride, 0.5 mM ethylenediaminetetraacetic acid, 5% glycerol, 1.0 mM 1,4-Dithio-DL-threitol, 200 nM bovine serum albumin, 1.0 μg/m1 sheared salmon sperm DNA, 250 pM E. coli GyrA, 250 pM S. aureus GyrB, 250 μM ATP, and compound in dimethylsulfoxide. Reactions can be quenched with 30 μl of ammonium molybdate/malachite green detection reagent containing 1.2 mM malachite green hydrochloride, 8.5 mM ammonium molybdate tetrahydrate, and 1 M hydrochloric acid. […] An IC50 measurement of compound potency for each compound can be determined from reactions performed in the presence of 10 different compound concentrations.
On to `CCNC(=O)Nc1cc(-c2nc(C(F)(F)F)cs2)c(-c2ccc3c(=O)c(C(=O)NC)cn(CC)c3c2)cn1` [Example 33, 1-ethyl-7-(6-(3-ethylureido)-4-(4-(trifluoromethyl)thiazol-2-yl)pyridin-3-yl)-N-methyl-4-oxo-1,4-dihydroquinoline-3-carboxamide], for which the “% Inhibition of S. aureus GyrB ATPase” value is listed as 109%.

Staying with this assay, now noted: compound at 1 μM; one value per test if tested more than once; read-out: % Inhibition of S. aureus GyrB ATPase.
Regarding `CCNC(=O)Nc1cc(-c2nc(C(F)(F)F)cs2)c(-c2ccc3c(c2)c(=O)c(C(=O)O)cn3CC2CCOCC2)cn1` [Example 90, 6-(6-(3-ethylureido)-4-(4-(trifluoromethyl)thiazol-2-yl)pyridin-3-yl)-4-oxo-1-((tetrahydro-2H-pyran-4-yl)methyl)-1,4-dihydroquinoline-3-carboxylic acid], the inhibition (usually the change of the read-out against control, counted positive when it falls) at 1 µM was found to be 97%.
Same read-out and setting: then `CCNC(=O)Nc1cc(-c2nc(C(F)(F)F)cs2)c(-c2ccc3c(c2)c(=O)c(C(=O)O)cn3[C@@H](C)CO)cn1` [Example 71, (S)-6-(6-(3-ethylureido)-4-(4-(trifluoromethyl)thiazol-2-yl)pyridin-3-yl)-1-(1-hydroxypropan-2-yl)-4-oxo-1,4-dihydroquinoline-3-carboxylic acid], with 107%.
Still for that read-out and setting: then `CCNC(=O)Nc1cc(-c2nc(C(F)(F)F)cs2)c(-c2ccc3c(c2)c(=O)c(C(=O)N2CCN(S(=O)(=O)N(C)C)CC2)cn3C2CN(C)C2)cn1` [Example 165, 4-(6-(6-(3-ethylureido)-4-(4-(trifluoromethyl)thiazol-2-yl)pyridin-3-yl)-1-(1-methylazetidin-3-yl)-4-oxo-1,4-dihydroquinoline-3-carbonyl)-N,N-dimethylpiperazine-1-sulfonamide], with 109%.
On the same count and under the same terms, with `CCNC(=O)Nc1cc(-c2nc(C(F)(F)F)cs2)c(-c2ccc3c(=O)c(C(=O)OCC)cn(CC)c3c2)cn1` [Example 42, Ethyl 1-ethyl-7-(6-(3-ethylureido)-4-(4-trifluoromethylthiazol-2-yl)pyridin-3-yl)-4-oxo-1,4-dihydroquinoline-3-carboxylate] the figure was 113%.
Consider `CCNC(=O)Nc1cc(-c2nc(C(F)(F)F)cs2)c(-c2ccc3c(c2)c(=O)c(C(=O)O)cn3C(CO)CO)cn1` [Example 75, 1-(1,3-dihydroxypropan-2-yl)-6-(6-(3-ethylureido)-4-(4-(trifluoromethyl)thiazol-2-yl)pyridin-3-yl)-4-oxo-1,4-dihydroquinoline-3-carboxylic acid], for which the inhibition at 1 µM was 102%.
On the same count and under the same terms, with `CCNC(=O)Nc1cc(-c2nc(C(F)(F)F)cs2)c(-c2ccc3c(=O)c(C(=O)NCCCO)cn(CC)c3c2)cn1` [Example 331, 1-Ethyl-7-{6-[(ethylcarbamoyl)amino]-4-[4-(trifluoromethyl)-1,3-thiazol-2-yl]pyridin-3-yl}-N-(3-hydroxypropyl)-4-oxo-1,4-dihydroquinoline-3-carboxamide] the figure was 109%; with `CCNC(=O)Nc1cc(-c2nc(C(F)(F)F)cs2)c(-c2ccc3c(c2)c(=O)c(C(=O)O)cn3[C@@H]2CCCN(CC(C)(C)CN3CCOCC3)C2)cn1` [Example 290, (R)-1-(1-(2,2-dimethyl-3-morpholinopropyl)piperidin-3-yl)-6-(6-(3-ethylureido)-4-(4-(trifluoromethyl)thiazol-2-yl)pyridin-3-yl)-4-oxo-1,4-dihydroquinoline-3-carboxylic acid], 100%; with `CCNC(=O)Nc1cc(-c2nc(C(F)(F)F)cs2)c(-c2ccc3c(=O)c(C(=O)NC)cn(CC)c3c2)cn1` [Example 33, 1-ethyl-7-(6-(3-ethylureido)-4-(4-(trifluoromethyl)thiazol-2-yl)pyridin-3-yl)-N-methyl-4-oxo-1,4-dihydroquinoline-3-carboxamide], 97%.
In the case of `CCNC(=O)Nc1cc(-c2nc(C(F)(F)F)cs2)c(-c2ccc3c(c2)c(=O)c(C(=O)O)cn3CCCO)cn1` [Example 320, 6-(6-(3-Ethylureido)-4-(4-(trifluoromethyl)thiazol-2-yl)pyridin-3-yl)-1-(3-hydroxy-propyl)-4-oxo-1,4-dihydro-quinoline-3-carboxylic acid], the inhibition at 1 µM was 98%.
With `CCNC(=O)Nc1cc(-c2nc(C(F)(F)F)cs2)c(-c2ccc3c(c2)c(=O)c(C(=O)NC)cn3[C@H](C(=O)O)C(C)C)cn1` [Example 130, (S)-2-(6-(6-(3-ethylureido)-4-(4-(trifluoromethyl)thiazol-2-yl)pyridin-3-yl)-3-(methylcarbamoyl)-4-oxoquinolin-1(4H)-yl)-3-methylbutanoic acid], the inhibition at 1 µM turned out to be 101%.
As for `CCCNC(=O)Nc1cc(-c2nc(C(F)(F)F)cs2)c(-c2ccc3c(c2)c(=O)c(C(=O)NCCO)cn3CCC2CCOCC2)cn1` [Example 214, N-(2-hydroxyethyl)-4-oxo-6-(6-(3-propylureido)-4-(4-(trifluoromethyl)thiazol-2-yl)pyridin-3-yl)-1-(2-(tetrahydro-2H-pyran-4-yl)ethyl)-1,4-dihydroquinoline-3-carboxamide], the inhibition at 1 µM came out at 118%.
The same measure, in the same setting: then `CCCNC(=O)Nc1cc(-c2nc(C(F)(F)F)cs2)c(-c2ccc3c(c2)c(=O)c(C(=O)N2CCN(C(C)=O)CC2)cn3CCN(C)C)cn1` [Example 160, 1-(5-(3-(4-acetylpiperazine-1-carbonyl)-1-(2-(dimethylamino)ethyl)-4-oxo-1,4-dihydroquinolin-6-yl)-4-(4-(trifluoromethyl)thiazol-2-yl)pyridin-2-yl)-3-propylurea], with 103%.
Consider `CCNC(=O)Nc1cc(-c2nc(C(F)(F)F)cs2)c(-c2ccc3c(c2)c(=O)c(C(=O)O)cn3[C@H]2CCCN(CCO)C2)cn1` [Example 291, (S)-6-(6-(3-ethylureido)-4-(4-(trifluoromethyl)thiazol-2-yl)pyridin-3-yl)-1-(1-(2-hydroxyethyl)piperidin-3-yl)-4-oxo-1,4-dihydroquinoline-3-carboxylic acid], for which the inhibition at 1 µM was 107%.
For `CCNC(=O)Nc1cc(-c2nc(-c3ccccc3)cs2)c(-c2ccc3c(c2)c(=O)c(C(=O)O)cn3CC)cn1` [Example 16, 1-ethyl-6-(6-(3-ethylureido)-4-(4-phenylthiazol-2-yl)pyridin-3-yl)-4-oxo-1,4-dihydroquinoline-3-carboxylic acid], the inhibition at 1 µM stood at 101%.
As to `CCNC(=O)Nc1cc(-c2nc(C(F)(F)F)cs2)c(-c2ccc3c(c2)c(=O)c(C(=O)O)cn3[C@H](CO)C(C)(C)C)cn1` [Example 81, 6-{6-[(ethylcarbamoyl)amino]-4-[4-(trifluoromethyl)-1,3-thiazol-2-yl]pyridin-3-yl}-1-[(1S)-1-(hydroxymethyl)-2,2-dimethylpropyl]-4-oxo-1,4-dihydroquinoline-3-carboxylic acid], the inhibition at 1 µM is 96%.
Still for that read-out and setting: with `CCNC(=O)Nc1cc(-c2nc(C(F)(F)F)cs2)c(-c2ccc3c(c2)c(=O)c(C(=O)N2CCN(C(C)=O)CC2)cn3C2CN(C)C2)cn1` [Example 169, 1-(5-(3-(4-acetylpiperazine-1-carbonyl)-1-(1-methylazetidin-3-yl)-4-oxo-1,4-dihydroquinolin-6-yl)-4-(4-(trifluoromethyl)thiazol-2-yl)pyridin-2-yl)-3-ethylurea] the figure was 105%; with `CCNC(=O)Nc1cc(-c2nc(C(F)(F)F)cs2)c(-c2ccc3c(c2)c(=O)c(C(=O)O)cn3[C@@H]2CCCC[C@@H]2O)cn1` (relative stereo) [Example 276, 6-(6-(3-ethylureido)-4-(4-(trifluoromethyl)thiazol-2-yl)pyridin-3-yl)-1-(cis-2-hydroxycyclohexyl)-4-oxo-1,4-dihydroquinoline-3-carboxylic acid], 106%; with `CCNC(=O)Nc1cc(-c2nc(C(F)(F)F)cs2)c(-c2ccc3c(c2)c(=O)c(C(=O)O)cn3C2CCOCC2)cn1` [Example 321, 6-(6-(3-Ethylureido)-4-(4-(trifluoromethyl)thiazol-2-yl)-pyridin-3-yl)-4-oxo-1-(tetrahydro-2H-pyran-4-yl)-1,4dihydroquinoline-3-carboxylic acid], 100%.
`CCNC(=O)Nc1cc(-c2nc(C(F)(F)F)cs2)c(-c2ccc3c(c2)c(=O)c(C(=O)O)cn3[C@H](CO)Cc2ccccc2)cn1` [Example 74, (S)-6-(6-(3-ethylureido)-4-(4-(trifluoromethyl)thiazol-2-yl)pyridin-3-yl)-1-(1-hydroxy-3-phenylpropan-2-yl)-4-oxo-1,4-dihydroquinoline-3-carboxylic acid]: the inhibition at 1 µM was determined as 103%.
`CCNC(=O)Nc1cc(-c2nc(C(F)(F)F)cs2)c(-c2ccc3c(c2)c(=O)c(C(=O)O)cn3[C@@H]2CCCN(CC)C2)cn1` [Example 252, (R)-1-(1-ethylpiperidin-3-yl)-6-(6-(3-ethylureido)-4-(4-(trifluoromethyl)thiazol-2-yl)pyridin-3-yl)-4-oxo-1,4-dihydroquinoline-3-carboxylic acid]: the inhibition at 1 µM was 105%.
For `CCNC(=O)Nc1cc(-c2nc(C(F)(F)F)cs2)c(-c2ccc3c(c2)c(=O)c(C(=O)NC2CC2)cn3C2CC2)cn1` [Example 326, N,1-Dicyclopropyl-6-(6-(3-ethylureido)-4-(4-(trifluoromethyl)thiazol-2-yl)pyridin-3-yl)-4-oxo-1,4-dihydroquino-line-3-carboxamide], the inhibition at 1 µM was 97%.
For `CCNC(=O)Nc1cc(-c2nc(-c3ccccc3)cs2)c(-c2ccc3c(c2)c(=O)c(C(=O)O)cn3CCOC)cn1` [Example 2, 6-(6-(3-ethylureido)-4-(4-phenylthiazol-2-yl)pyridin-3-yl)-1-(2-methoxyethyl)-4-oxo-1,4-dihydroquinoline-3-carboxylic acid], the inhibition at 1 µM was 100%.
